# Key:
# [1] = target: T1, human B1R (Homo sapiens, UniProt P46663); assay: FLIPR Ca2+ functional assay, B1R antagonism, human B1R in CHO K1 cells; assay type: cell-based; conditions: test substance 10 μM; hB1R CHO K1 cells; agonist Lys-Des-Arg9 bradykinin at EC80; % of maximum achievable inhibition
# T1 construct: expressed in transfected cells; host or cells: CHO K1 cells (Chinese hamster ovary), stably transfected
# T1 sequence (P46663 1-353): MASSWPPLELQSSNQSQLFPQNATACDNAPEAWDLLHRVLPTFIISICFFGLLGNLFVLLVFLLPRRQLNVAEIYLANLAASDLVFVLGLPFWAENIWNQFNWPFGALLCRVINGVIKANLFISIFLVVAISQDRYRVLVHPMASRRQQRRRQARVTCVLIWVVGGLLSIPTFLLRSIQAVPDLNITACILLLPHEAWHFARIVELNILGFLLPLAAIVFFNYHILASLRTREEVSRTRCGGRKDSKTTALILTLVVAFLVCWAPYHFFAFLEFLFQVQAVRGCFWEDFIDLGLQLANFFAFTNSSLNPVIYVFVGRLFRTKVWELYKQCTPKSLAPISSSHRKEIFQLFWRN
# Outline: (§1)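 Stably transfected CHO K1 cells loaded with Fluo-4; Ca2+ fluorescence read on FLIPR (ex 488/em 540 nm). Compound preincubated 10-20 min, then agonist at EC80: Lys-Des-Arg9 bradykinin (human) or Des-Arg9 bradykinin (rat). % inhibition vs maximal inhibition; IC50 from concentration series, n=2-3, N>=2.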
# [2] = target: T2, B1R of the rat (Rattus norvegicus, UniProt P97583); assay: FLIPR Ca2+ functional assay, B1R antagonism, rat B1R in CHO K1 cells; assay type: cell-based; conditions: test substance 10 μM; rB1R CHO K1 cells; agonist Des-Arg9 bradykinin at EC80; % of maximum achievable inhibition
# T2 construct: expressed in transfected cells; host or cells: CHO K1 cells (Chinese hamster ovary), stably transfected
# T2 sequence (P97583 1-337): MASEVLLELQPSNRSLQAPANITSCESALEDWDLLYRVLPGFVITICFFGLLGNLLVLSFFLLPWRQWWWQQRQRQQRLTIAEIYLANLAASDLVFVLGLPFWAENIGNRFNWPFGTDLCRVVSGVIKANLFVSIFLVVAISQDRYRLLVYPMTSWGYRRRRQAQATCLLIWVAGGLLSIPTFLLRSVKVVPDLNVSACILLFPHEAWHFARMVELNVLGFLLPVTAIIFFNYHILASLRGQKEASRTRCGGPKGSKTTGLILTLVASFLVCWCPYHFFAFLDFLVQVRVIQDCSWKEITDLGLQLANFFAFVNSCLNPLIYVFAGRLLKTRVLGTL
# Outline: as §1
inhibition at 10 µM [1],inhibition at 10 µM [2],Compound
99.4%,102%,"Cc1ccc(S(=O)(=O)N2CCn3cccc3C2CC(=O)NC2CCc3cc(CN4CCOCC4)ccc3C2)cc1 (stereo not shown) [Example 87, N-[6-(Morpholin-4-yl-methyl)-1,2,3,4-tetrahydro-naphthalen-2-yl]-2-[2-(p-tolylsulfonyl)-1,2,3,4-tetrahydro-pyrrolo[1,2-a]pyrazin-1-yl]-acetamide]"
100%,99.1%,"O=C(CC1c2cccn2CCN1S(=O)(=O)c1cccc(C(F)(F)F)c1)NC1CCCc2cc(CN3CCCCC3)ccc21 (stereo not shown) [Example 89, N-[6-(Piperidin-1-yl-methyl)-1,2,3,4-tetrahydro-naphthalen-1-yl]-2-[2-[[3-(trifluoromethyl)phenyl]sulfonyl]-1,2,3,4-tetrahydro-pyrrolo[1,2-a]pyrazin-1-yl]-acetamide]"
54.6%,51.4%,"O=C(CC1c2cccn2CCN1S(=O)(=O)c1cccc(C(F)(F)F)c1)NC1CCCc2cc(CN3CCCc4ccccc43)ccc21 (stereo not shown) [Example 90, N-[6-(1,2,3,4-Tetrahydro-quinolin-1-yl-methyl)-1,2,3,4-tetrahydro-naphthalen-1-yl]-2-[2-[[3-(trifluoromethyl)phenyl]sulfonyl]-1,2,3,4-tetrahydro-pyrrolo[1,2-a]pyrazin-1-yl]-acetamide]"
99.9%,99%,"Cc1ccc(S(=O)(=O)N2CCn3cccc3C2CC(=O)NC2CCCc3cc(CN4CCCC4)ccc32)cc1Cl (stereo not shown) [Example 91, 2-[2-[(3-Chloro-4-methyl-phenyl)sulfonyl]-1,2,3,4-tetrahydro-pyrrolo[1,2-a]pyrazin-1-yl]-N-[6-(pyrrolidin-1-yl-methyl)-1,2,3,4-tetrahydro-naphthalen-1-yl]-acetamide]"
99.9%,102%,"CN(C)Cc1ccc2c(c1)CCC(NC(=O)CC1c3cccn3CCN1S(=O)(=O)c1cccc(C(F)(F)F)c1)C2 (stereo not shown) [Example 92, N-[6-(Dimethylaminomethyl)-1,2,3,4-tetrahydro-naphthalen-2-yl]-2-[2-[[3-(trifluoromethyl)phenyl]sulfonyl]-1,2,3,4-tetrahydro-pyrrolo[1,2-a]pyrazin-1-yl]-acetamide]"
99.9%,96.8%,"Cc1ccc(S(=O)(=O)N2CCn3cccc3C2CC(=O)NC2CCc3cc(CNCc4ccccc4)ccc3C2)cc1 (stereo not shown) [Example 93, N-[6-[(Benzylamino)-methyl]-1,2,3,4-tetrahydro-naphthalen-2-yl]-2-[2-(p-tolylsulfonyl)-1,2,3,4-tetrahydro-pyrrolo[1,2-a]pyrazin-1-yl]-acetamide]"
99.9%,101%,"COc1ccc2cc(S(=O)(=O)N3CCn4cccc4C3CC(=O)NC3CCc4cc(CN5CCCC5)ccc4C3)ccc2c1 (stereo not shown) [Example 94, 2-[2-[(6-Methoxy-naphthalen-2-yl)sulfonyl]-1,2,3,4-tetrahydro-pyrrolo[1,2-a]pyrazin-1-yl]-N-[6-(pyrrolidin-1-yl-methyl)-1,2,3,4-tetrahydro-naphthalen-2-yl]-acetamide]"

# Second part, the molecule before the results:
Compound,inhibition at 10 µM [1],inhibition at 10 µM [2]
"Cc1ccc(S(=O)(=O)N2CCn3cccc3C2CC(=O)NC2CCc3cc(CN4CCCc5ccccc54)ccc3C2)cc1 (stereo not shown) [Example 79, 2-[2-(p-Tolylsulfonyl)-1,2,3,4-tetrahydro-pyrrolo[1,2-a]pyrazin-1-yl]-N-[6-(1,2,3,4-tetrahydro-quinolin-1-yl-methyl)-1,2,3,4-tetrahydro-naphthalen-2-yl]-acetamide]",57.9%,99.3%
"Cc1ccc(S(=O)(=O)N2CCn3cccc3C2CC(=O)NC2CCCc3cc(CN4CCCCC4)ccc32)cc1 (stereo not shown) [Example 80, N-[6-(Piperidin-1-yl-methyl)-1,2,3,4-tetrahydro-naphthalen-1-yl]-2-[2-(p-tolylsulfonyl)-1,2,3,4-tetrahydro-pyrrolo[1,2-a]pyrazin-1-yl]-acetamide]",99.8%,101%
"Cc1ccc(S(=O)(=O)N2CCn3cccc3C2CC(=O)NC2CCc3cc(CN4CCN(C)CC4)ccc3C2)cc1 (stereo not shown) [Example 81, N-[6-[(4-Methyl-piperazin-1-yl)-methyl]-1,2,3,4-tetrahydro-naphthalen-2-yl]-2-[2-(p-tolylsulfonyl)-1,2,3,4-tetrahydro-pyrrolo[1,2-a]pyrazin-1-yl]-acetamide]",99.1%,102%
"CC(C)(C)NCc1ccc2c(c1)CCCC2NC(=O)CC1c2cccn2CCN1S(=O)(=O)c1cccc(C(F)(F)F)c1 (stereo not shown) [Example 82, N-[6-[(tert-Butylamino)-methyl]-1,2,3,4-tetrahydro-naphthalen-1-yl]-2-[2-[[3-(trifluoromethyl)phenyl]sulfonyl]-1,2,3,4-tetrahydro-pyrrolo[1,2-a]pyrazin-1-yl]-acetamide]",99.9%,101%
"O=C(CC1c2cccn2CCN1S(=O)(=O)c1cccc(C(F)(F)F)c1)NC1CCc2cc(CNCc3ccccc3)ccc2C1 (stereo not shown) [Example 83, N-[6-[(Benzylamino)-methyl]-1,2,3,4-tetrahydro-naphthalen-2-yl]-2-[2-[[3-(trifluoromethyl)phenyl]sulfonyl]-1,2,3,4-tetrahydro-pyrrolo[1,2-a]pyrazin-1-yl]-acetamide]",99.3%,101%
"O=C(CC1c2cccn2CCN1S(=O)(=O)c1cccc(C(F)(F)F)c1)NC1CCc2cc(CN3CCCC3)ccc2C1 (stereo not shown) [Example 84, N-[6-(Pyrrolidin-1-yl-methyl)-1,2,3,4-tetrahydro-naphthalen-2-yl]-2-[2-[[3-(trifluoromethyl)phenyl]sulfonyl]-1,2,3,4-tetrahydro-pyrrolo[1,2-a]pyrazin-1-yl]-acetamide]",99.8%,100%
"Cc1ccc(S(=O)(=O)N2CCn3cccc3C2CC(=O)NC2CCCc3cc(CN4CCCC4)ccc32)cc1 (stereo not shown) [Example 85, 2-[2-(p-Tolylsulfonyl)-1,2,3,4-tetrahydro-pyrrolo[1,2-a]pyrazin-1-yl]-N-[6-(pyrrolidin-1-yl-methyl)-1,2,3,4-tetrahydro-naphthalen-1-yl]-acetamide]",99.9%,101%
"O=C(CC1c2cccn2CCN1S(=O)(=O)c1cccc(C(F)(F)F)c1)NC1CCCc2cc(CN3CCCC3)ccc21 (stereo not shown) [Example 86, N-[6-(Pyrrolidin-1-yl-methyl)-1,2,3,4-tetrahydro-naphthalen-1-yl]-2-[2-[[3-(trifluoromethyl)phenyl]sulfonyl]-1,2,3,4-tetrahydro-pyrrolo[1,2-a]pyrazin-1-yl]-acetamide]",99.8%,97.5%
"O=C(CC1c2cccn2CCN1S(=O)(=O)c1cccc(C(F)(F)F)c1)NC1CCc2cc(CN3C4CCCC3CC4)ccc2C1 (stereo not shown) [Example 88, N-[6-(8-Azabicyclo[3.2.1]octan-8-yl-methyl)-1,2,3,4-tetrahydro-naphthalen-2-yl]-2-[2-[[3-(trifluoromethyl)phenyl]sulfonyl]-1,2,3,4-tetrahydro-pyrrolo[1,2-a]pyrazin-1-yl]-acetamide]",99.9%,96.5%
"COc1ccc2cc(S(=O)(=O)N3CCn4cccc4C3CC(=O)NC3CCCc4cc(CN5C6CCCC5CC6)ccc43)ccc2c1 (stereo not shown) [Example 95, N-[6-(8-Azabicyclo[3.2.1]octan-8-yl-methyl)-1,2,3,4-tetrahydro-naphthalen-1-yl]-2-[2-[(6-methoxy-naphthalen-2-yl)sulfonyl]-1,2,3,4-tetrahydro-pyrrolo[1,2-a]pyrazin-1-yl]-acetamide]",99.7%,99.8%

# Reference: patent publication US8158628B2, “Sulfonylated 1,2,3,4-tetrahydropyrrolo[1,2-a]pyrazine compounds and their use as pharmaceuticals” (Gruenenthal GmbH, priority 2009, dated 2012)
